Assay results reported in US9414596B2, “Metalloenzyme inhibitor compounds” (Viamet Pharmaceuticals, Inc., priority 2012, dated 2016).
≈ marks a conversion by molar mass, not a printed value.

The molecules below were run on Septoria tritici (ATCC 26517) (assay: Minimum Inhibitory Concentration (MIC) (Septoria tritici), CLSI-based microdilution). Details: S. tritici ATCC 26517; seven days at 22° C. in the dark; MIC = 50% reduction in growth, visual.
Assay type: cell-based
Method: B. Minimum Inhibitory Concentration (MIC) (Septoria tritici)
Compounds of the present disclosure were assessed for their ability to inhibit the growth of a common strain of the fungal plant pathogen Septoria tritici (ATCC 26517) using a procedure based on a Clinical and Laboratory Standards Institute (CLSI) microdilution assay protocol for filamentous fungi.
Stock solutions of the test compounds and standards were prepared in DMSO at 6400 μg/mL. Each stock solution was used to prepare a 2-fold dilution series ranging from 16 to 0.016 μg/mL (total of 11 compound concentrations) in RPMI-1640 (Roswell Park Memorial Institute) medium containing 3-(N-morpholino)propanesulfonic acid (MOPS) buffer and 2% DMSO. A 100 μL aliquot of the dilutions was added to columns 1 (16 μg/mL compound) through 11 (0.016 μg/mL compound) of a 96-well microtiter plate. This format was replicated in a second row of the microtiter plate. Thus, each microtiter plate could include 11 concentrations of four test or control compounds replicated twice. A 100 μL aliquot of RPMI-1640/MOPS/2% DMSO medium was added to column 12 (no compound control) of the microtiter plate.
A fresh culture of S. tritici was used to prepare a solution of approximately 5×10^4 colony-forming units per milliliter (cfu/mL) in RPMI/MOPS medium without DMSO. A 100 μL aliquot of this solution was added to all 96 wells in the microtiter plate. […] The assay plates were incubated at 22° C. for seven days in the dark without shaking.

With `CC(F)(c1ccc(-c2ccc(OC(F)(F)F)cc2)cn1)C(O)(Cn1cnnn1)c1ccc(F)cc1F` (stereo not drawn) [Example 47, 2-(2,4-Difluorophenyl)-3-fluoro-1-(1H-tetrazol-1-yl)-3-(5-(4-(trifluoromethoxy)phenyl)-pyridin-2-yl)butan-2-ol] the “Septoria MIC Rating” value was “B (>0.5-1.5)”.

Same assay, conditions: Zymoseptoria tritici, ATCC26517, 168 h, S. tritici ATCC 26517; seven days at 22° C. in the dark; MIC = 50% reduction in growth, visual; read-out: Septoria MIC Rating

Compared with `OC(Cn1cnnn1)(c1ccc(F)cc1F)C(F)(F)c1ccc(-c2ccc(Cl)cc2)cn1` (stereo not drawn) [Example 9, 1-(5-(4-Chlorophenyl)pyridin-2-yl)-2-(2,4-difluorophenyl)-1,1-difluoro-3-(1H-tetrazol-1-yl)propan-2-ol], `Oc1ccc(-c2ccc(C(F)(F)C(O)(Cn3cnnn3)c3ccc(F)cc3F)nc2)cc1` (stereo not drawn) [Example 23, 4-(6-(2-(2,4-Difluorophenyl)-1,1-difluoro-2-hydroxy-3-(1H-tetrazol-1-yl)propyl)pyridin-3-yl)phenol] is higher in MIC: under 0.5 µg/mL for the first, 1.5 to 4 µg/mL (≈ 3.37 to 8.98 µM) for the second.

First: OC(Cn1cnnn1)(c1ccc(F)cc1F)C(F)(F)c1ccc(-c2ccc(OCC(F)(F)F)cc2)cn1 (stereo not drawn) [Example 11, 2-(2,4-Difluorophenyl)-1,1-difluoro-3-(1H-tetrazol-1-yl)-1-(5-(4-(2,2,2-trifluoroethoxy)phenyl)pyridin-2-yl)propan-2-ol]
Second: CC(F)(c1ccc(-c2ccc(OCC(F)(F)F)cc2)cn1)C(O)(Cn1cnnn1)c1ccc(F)cc1F (stereo not drawn) [Example 57, 2-(2,4-Difluorophenyl)-3-fluoro-1-(1H-tetrazol-1-yl)-3-(5-(4-(2,2,2-trifluoroethoxy)phenyl)pyridin-2-yl)butan-2-ol]
The MIC of the first is lower: under 0.5 µg/mL for the first, 1.5 to 4 µg/mL (≈ 2.87 to 7.64 µM) for the second.

`OC(Cn1cnnn1)(c1ccc(F)cc1F)C(F)(F)c1ccc(-c2ccc(N3CCOCC3)cc2)cn1` (stereo not drawn) [Example 36, 2-(2,4-Difluorophenyl)-1,1-difluoro-1-(5-(4-morpholinophenyl)pyridin-2-yl)-3-(1H-tetrazol-1-yl)propan-2-ol] and `OC(Cn1cnnn1)(c1ccc(F)cc1F)C(F)(F)c1ccc(-c2ccc(F)cc2)cn1` (stereo not drawn) [Example 5, 2-(2,4-Difluorophenyl)-1,1-difluoro-1-(5-(4-fluorophenyl)pyridin-2-yl)-3-(1H-tetrazol-1-yl)propan-2-ol] cannot be ordered by MIC: under 0.5 µg/mL for the first, under 0.5 µg/mL for the second.

First: OC(Cn1ncnn1)(c1ccc(F)cc1F)C(F)(F)c1ccc(-c2cccc(F)c2)cn1 (stereo not drawn) [Example 21]
Second: OC(Cn1cnnn1)(c1ccc(F)cc1F)C(F)(F)c1ccc(-c2cccc(Cl)c2)cn1 (stereo not drawn) [Example 8, 1-(5-(3-Chlorophenyl)pyridin-2-yl)-2-(2,4-difluorophenyl)-1,1-difluoro-3-(1H-tetrazol-1-yl)propan-2-ol]
The MIC of the first is higher: over 4 µg/mL for the first, 0.5 to 1.5 µg/mL (≈ 1.08 to 3.23 µM) for the second.

Compared with `OC(Cn1cnnn1)(c1ccc(F)cc1F)C(F)(F)c1ccc(-c2cccc(OC(F)(F)F)c2)cn1` (stereo not drawn) [Example 6, 2-(2,4-Difluorophenyl)-1,1-difluoro-3-(1H-tetrazol-1-yl)-1-(5-(3-(trifluoromethoxy)phenyl)-pyridin-2-yl)propan-2-ol], `OC(Cn1cnnn1)(c1ccc(F)cc1F)C(F)(F)c1ccc(-c2ccc(OC(F)(F)F)cc2)cn1` (stereo not drawn) [Example 7, 2-(2,4-Difluorophenyl)-1,1-difluoro-3-(1H-tetrazol-1-yl)-1-(5-(4-(trifluoromethoxy)phenyl)-pyridin-2-yl)propan-2-ol] is lower in MIC: 1.5 to 4 µg/mL (≈ 2.92 to 7.79 µM) for the first, under 0.5 µg/mL for the second.

First: CC(F)(c1ccc(-c2ccc(C(F)(F)F)cc2)cn1)C(O)(Cn1cnnn1)c1ccc(F)cc1F (stereo not drawn) [Example 53, 2-(2,4-Difluorophenyl)-3-fluoro-1-(1H-tetrazol-1-yl)-3-(5-(4-(trifluoromethyl)phenyl)pyridin-2-yl)butan-2-ol]
Second: CC(F)(c1ccc(-c2ccc(OC(F)(F)F)cc2)cn1)C(O)(Cn1cnnn1)c1ccc(F)cc1F (stereo not drawn) [Example 46, 2-(2,4-Difluorophenyl)-3-fluoro-1-(1H-tetrazol-1-yl)-3-(5-(4-(trifluoromethoxy)phenyl)-pyridin-2-yl)butan-2-ol]
The MIC of the first is higher: 1.5 to 4 µg/mL (≈ 3.04 to 8.11 µM) for the first, under 0.5 µg/mL for the second.

`OC(Cn1cncn1)(c1ccc(F)cc1F)C(F)(F)c1ccc(-c2ccc(OC(F)(F)F)cc2)cn1` (stereo not drawn) [Example 18, 2-(2,4-Difluorophenyl)-1,1-difluoro-3-(1H-1,2,4-triazol-1-yl)-1-(5-(4-(trifluoromethoxy)phenyl)pyridin-2-yl) propan-2-ol] and `OC(Cn1cncn1)(c1ccc(F)cc1F)C(F)(F)c1ccc(-c2ccc(F)cc2)cn1` (stereo not drawn) [Example 16, 2-(2,4-Difluorophenyl)-1,1-difluoro-1-(5-(4-fluorophenyl)pyridin-2-yl)-3-(1H-1,2,4-triazol-1-yl)propan-2-ol] cannot be ordered by MIC: under 0.5 µg/mL for the first, under 0.5 µg/mL for the second.

Compared with `OC(Cn1cnnn1)(c1ccc(F)cc1F)C(F)(F)c1ccc(-c2cc(F)ccc2F)cn1` (stereo not drawn) [Example 10, 2-(2,4-Difluorophenyl)-1-(5-(2,5-difluorophenyl)pyridin-2-yl)-1,1-difluoro-3-(1H-tetrazol-1-yl)propan-2-ol], `OC(Cn1cnnn1)(c1ccc(F)cc1F)C(F)(F)c1ccc(-c2ccc(Cl)c(F)c2)cn1` (stereo not drawn) [Example 29, 1-(5-(4-Chloro-3-fluorophenyl)pyridin-2-yl)-2-(2,4-difluorophenyl)-1,1-difluoro-3-(1H-tetrazol-1-yl)propan-2-ol] is higher in MIC: under 0.5 µg/mL for the first, 1.5 to 4 µg/mL (≈ 3.11 to 8.3 µM) for the second.

`OC(Cn1cnnn1)(c1ccc(F)cc1F)C(F)(F)c1ccc(-c2ccc(CC(F)(F)F)cc2)cn1` (stereo not drawn) [Example 41, 2-(2,4-Difluorophenyl)-1,1-difluoro-3-(1H-tetrazol-1-yl)-1-(5-(4-(2,2,2-trifluoroethyl)phenyl)pyridin-2-yl)propan-2-ol] and `OC(Cn1cnnn1)(c1ccc(F)cc1F)C(F)(F)c1ccc(-c2ccc(SCC(F)(F)F)cc2)cn1` (stereo not drawn) [Example 45, 2-(2,4-Difluorophenyl)-1,1-difluoro-3-(1H-tetrazol-1-yl)-1-(5-(4-((2,2,2-trifluoroethyl)thio)phenyl)pyridin-2-yl)propan-2-ol] cannot be ordered by MIC: under 0.5 µg/mL for the first, under 0.5 µg/mL for the second.

First: N#Cc1ccc(-c2ccc(C(F)(F)C(O)(Cn3cnnn3)c3ccc(F)cc3F)nc2)cc1 (stereo not drawn) [Example 1, 4-(6-(2-(2,4-Difluorophenyl)-1,1-difluoro-2-hydroxy-3-(1H-tetrazol-1-yl)propyl)pyridin-3-yl)benzonitrile]
Second: CNC(=O)c1ccc(-c2ccc(C(F)(F)C(O)(Cn3cnnn3)c3ccc(F)cc3F)nc2)cc1 (stereo not drawn) [Example 42, 4-(6-(2-(2,4-Difluorophenyl)-1,1-difluoro-2-hydroxy-3-(1H-tetrazol-1-yl)propyl)pyridin-3-yl)-N-methylbenzamide]
The MIC of the first is lower: under 0.5 µg/mL for the first, over 4 µg/mL for the second.

`O=C(Nc1ccc(-c2ccc(C(F)(F)C(O)(Cn3cnnn3)c3ccc(F)cc3F)nc2)cc1)C(F)(F)F` (stereo not drawn) [Example 37, N-(4-(6-(2-(2,4-Difluorophenyl)-1,1-difluoro-2-hydroxy-3-(1H-tetrazol-1-yl)propyl)pyridin-3-yl)phenyl)-2,2,2-trifluoroacetamide] and `OC(Cn1cnnn1)(c1ccc(F)cc1F)C(F)(F)c1ccc(-c2ccc(SC(F)(F)F)cc2)cn1` (stereo not drawn) [Example 27, 2-(2,4-Difluorophenyl)-1,1-difluoro-3-(1H-tetrazol-1-yl)-1-(5-(4-((trifluoromethyl)thio)phenyl)pyridin-2-yl)propan-2-ol] cannot be ordered by MIC: under 0.5 µg/mL for the first, under 0.5 µg/mL for the second.

First: OC(Cn1cnnn1)(c1ccc(F)cc1F)C(F)(F)c1ccc(-c2ccccc2)cn1 (stereo not drawn) [Example 35, 2-(2,4-Difluorophenyl)-1,1-difluoro-1-(5-phenylpyridin-2-yl)-3-(1H-tetrazol-1-yl)propan-2-ol]
Second: CC(C)c1cccc(-c2ccc(C(F)(F)C(O)(Cn3cnnn3)c3ccc(F)cc3F)nc2)c1 (stereo not drawn) [Example 24, 2-(2,4-Difluorophenyl)-1,1-difluoro-1-(5-(3-isopropylphenyl)pyridin-2-yl)-3-(1H-tetrazol-1-yl)propan-2-ol]
The MIC of the first is lower: under 0.5 µg/mL for the first, 0.5 to 1.5 µg/mL (≈ 1.06 to 3.18 µM) for the second.

`OC(Cn1cnnn1)(c1ccc(F)cc1F)C(F)(F)c1ccc(-c2ccc(OC(F)F)cc2)cn1` (stereo not drawn) [Example 38, 1-(5-(4-(Difluoromethoxy)phenyl)pyridin-2-yl)-2-(2,4-difluorophenyl)-1,1-difluoro-3-(1H-tetrazol-1-yl)propan-2-ol] and `CC(C)Oc1ccc(-c2ccc(C(F)(F)C(O)(Cn3cnnn3)c3ccc(F)cc3F)nc2)cc1` (stereo not drawn) [Example 4, 2-(2,4-Difluorophenyl)-1,1-difluoro-1-(5-(4-isopropoxyphenyl)pyridin-2-yl)-3-(1H-tetrazol-1-yl)propan-2-ol] cannot be ordered by MIC: under 0.5 µg/mL for the first, under 0.5 µg/mL for the second.

First: OC(Cn1cnnn1)(c1ccc(F)cc1F)C(F)(F)c1ccc(-c2ccc(SC(F)F)cc2)cn1 (stereo not drawn) [Example 40, 1-(5-(4-((Difluoromethyl)thio)phenyl)pyridin-2-yl)-2-(2,4-difluorophenyl)-1,1-difluoro-3-(1H-tetrazol-1-yl)propan-2-ol]
Second: CC(F)(c1ccc(-c2ccc(Cl)cc2)cn1)C(O)(Cn1cnnn1)c1ccc(F)cc1F (stereo not drawn) [Example 55, 3-(5-(4-Chlorophenyl)pyridin-2-yl)-2-(2,4-difluorophenyl)-3-fluoro-1-(1H-tetrazol-1-yl)butan-2-ol]
The MIC of the first is lower: under 0.5 µg/mL for the first, 1.5 to 4 µg/mL (≈ 3.26 to 8.7 µM) for the second.

Work on `OC(Cn1cnnn1)(c1ccc(Cl)cc1F)C(F)(F)c1ccc(-c2ccc(OC(F)(F)F)cc2)cn1` (stereo not drawn) [Example 34, 2-(4-Chloro-2-fluorophenyl)-1,1-difluoro-3-(1H-tetrazol-1-yl)-1-(5-(4-(trifluoromethoxy)phenyl)pyridin-2-yl)propan-2-ol] yielded an MIC of under 0.5 µg/mL.
